The source of these data is patent US20130101530A1, “ANTIMICROBIAL PRESERVATIVE COMPOSITIONS FOR PERSONAL CARE PRODUCTS” (GALAXY SURFACTANTS LTD., priority 2011, published 2013).

Type in all cases: cell-based
In assay [1] the test system is Escherichia coli ATCC 10142. Kind of assay: Minimum inhibitory concentration.
For assay [2], the system named is Pseudomonas aeruginosa Immuno type IV. Kind of assay: Minimum inhibitory concentration.
The subject of assay [3] is Staphylococcus aureus ATCC 6538S. Kind of assay: Minimum inhibitory concentration. The note with it: for MIC: ATCC6538S.
The subject of assay [4] is Bacillus subtilis ATCC 9372. Kind of assay: microbe, parasite or virus in culture. The note with it: for MIC: ATCC9372.
The subject of assay [5] is all types of microbes (Gram positive, Gram negative bacteria, yeast and mould; the chosen eight organisms). Kind of assay: Minimum inhibitory concentration, whole panel.
The test system of assay [6] is Candida albicans ATCC 10231. Kind of assay: Minimum inhibitory concentration.
The subject of assay [7] is Aspergillus niger ATCC 16404. Kind of assay: Minimum inhibitory concentration.
In assay [8] the test system is Malassezia furfur MTCC 1374. Kind of assay: Minimum inhibitory concentration.
The subject of assay [9] is Propionibacterium acnes MTCC 1951. Kind of assay: Minimum inhibitory concentration. The settings on record: for MIC: Cutibacterium acnes.
Where [10] appears, read: Bacillus subtilis ATCC 9372, read-out: MINIMUM INHIBITORY CONCENTRATION
Setting [11] is: in Preservative Blend No 1 (10:10:80), Bacillus subtilis, read-out: Concentration of individual component at MIC of Preservative Blend No 1.

Structures are written as SMILES. Converted amounts (≈) assume the structure as drawn. Where two headings read alike, the source gives them in different places.

With `C=CCCCCCCCCC(=O)NCCO` [Undecylenoyl MEA amide, N-undecylenoyl monoethanol amide], the “MINIMUM INHIBITORY CONCENTRATION” value in assay [1] (Escherichia coli ATCC 10142), in assay [2] (Pseudomonas aeruginosa Immuno type IV), in assay [3] (Staphylococcus aureus ATCC 6538S), in assay [4] (Bacillus subtilis ATCC 9372), in assay [6] (Candida albicans ATCC 10231) and in assay [7] (Aspergillus niger) was >10000 ppm each time. Also, the “MINIMUM INHIBITORY CONCENTRATION” value in assay [8] (Malassezia furfur MTCC 1374) and in assay [9] (Propionibacterium acnes MTCC 1951) was >10000 ppm each time. Moreover, the “Concentration of individual component at MIC of Preservative Blend No 1” value in assay [1] (in Preservative Blend No 1 (10:10:80), Escherichia coli) was 200 ppm; in assay [2] (in Preservative Blend No 1 (10:10:80), Pseudomonas aeruginosa) it was 200 ppm; in assay [3] (in Preservative Blend No 1 (10:10:80), Staphylococcus aureus) it was 200 ppm; in [4] (in Preservative Blend No 1 (10:10:80), Bacillus subtilis), 200 ppm; in assay [6] (in Preservative Blend No 1 (10:10:80), Candida albicans), 300 ppm; in [7] (in Preservative Blend No 1 (10:10:80); Aspergillus niger), 300 ppm. Besides, the “Concentration of individual component at MIC of Preservative Blend No 1” value in assay [8] (in Preservative Blend No 1 (10:10:80), Malassezia furfur) turned out to be 400 ppm; in [9] (in Preservative Blend No 1 (10:10:80), Propionibacterium acnes), 300 ppm. For the same compound, the “Concentration of individual component at MIC of Preservative Blend No 2” value in assay [1] (in Preservative Blend No 2 (10:10:80), Escherichia coli) is 300 ppm; in [2] (in Preservative Blend No 2 (10:10:80), Pseudomonas aeruginosa), 300 ppm; in [3] (in Preservative Blend No 2 (10:10:80), Staphylococcus aureus), 300 ppm; in assay [4] (in Preservative Blend No 2 (10:10:80), Bacillus subtilis) it was 200 ppm; in assay [6] (in Preservative Blend No 2 (10:10:80), Candida albicans), 200 ppm; in assay [7] (in Preservative Blend No 2 (10:10:80); Aspergillus niger) it was 200 ppm. Moreover, the “Concentration of individual component at MIC of Preservative Blend No 2” value in [8] (in Preservative Blend No 2 (10:10:80), Malassezia furfur) stood at 400 ppm; in assay [9] (in Preservative Blend No 2 (10:10:80), Propionibacterium acnes) it was 200 ppm. In [5] (ingredient alone, octanoyl glycine tested at neutral pH), the “Concentration needed for activity of the ingredient by itself against the broad range of microbes” value is > 10000 ppm. In assay [5] (up to 1.0% concentration, bacteria, yeast and mould), the “Antimicrobial activity of the ingredient alone” value is “does not exhibit any antimicrobial activity”.
With `CCCCCCCC(=O)NCC(=O)O` [Octanoyl Glycine, N-Octanoyl glycine], the MIC in assay [1] (ATCC10142, Escherichia coli ATCC 10142, read-out: MINIMUM INHIBITORY CONCENTRATION) turned out to be 3000 µg/mL (≈ 14.9 mM); in assay [1] (ATCC10142, in Preservative Blend No 1 (10:10:80), Escherichia coli, read-out: Concentration of individual component at MIC of Preservative Blend No 1), 200 µg/mL; in assay [2] (Pseudomonas aeruginosa Immuno type IV, read-out: MINIMUM INHIBITORY CONCENTRATION), 3000 µg/mL (≈ 14.9 mM); in assay [2] (in Preservative Blend No 1 (10:10:80), Pseudomonas aeruginosa, read-out: Concentration of individual component at MIC of Preservative Blend No 1) it was 200 µg/mL; in assay [3] (Staphylococcus aureus ATCC 6538S, read-out: MINIMUM INHIBITORY CONCENTRATION), 3000 µg/mL (≈ 14.9 mM); in assay [3] (in Preservative Blend No 1 (10:10:80), Staphylococcus aureus, read-out: Concentration of individual component at MIC of Preservative Blend No 1), 200 µg/mL. The MIC in [4] (setting [10]) was 3000 µg/mL (≈ 14.9 mM); in assay [4] (setting [11]), 200 µg/mL; in assay [6] (ATCC10231, Candida albicans ATCC 10231, read-out: MINIMUM INHIBITORY CONCENTRATION) it was 4000 µg/mL (≈ 19.9 mM); in assay [6] (ATCC10231, in Preservative Blend No 1 (10:10:80), Candida albicans, read-out: Concentration of individual component at MIC of Preservative Blend No 1), 300 µg/mL; in assay [7] (ATCC16404; in Preservative Blend No 1 (10:10:80); Aspergillus niger; read-out: Concentration of individual component at MIC of Preservative Blend No 1), 300 µg/mL; in [7] (Aspergillus niger, ATCC16404; read-out: MINIMUM INHIBITORY CONCENTRATION), 4000 µg/mL (≈ 19.9 mM). Moreover, the MIC in [8] (MTCC1374, Malassezia furfur MTCC 1374, read-out: MINIMUM INHIBITORY CONCENTRATION) amounted to 3000 µg/mL (≈ 14.9 mM); in assay [8] (MTCC1374, in Preservative Blend No 1 (10:10:80), Malassezia furfur, read-out: Concentration of individual component at MIC of Preservative Blend No 1) it was 400 µg/mL; in [9] (MTCC1951, Propionibacterium acnes MTCC 1951, read-out: MINIMUM INHIBITORY CONCENTRATION), 3000 µg/mL (≈ 14.9 mM); in assay [9] (MTCC1951, in Preservative Blend No 1 (10:10:80), Propionibacterium acnes, read-out: Concentration of individual component at MIC of Preservative Blend No 1), 300 µg/mL.
`OCCOc1ccccc1` [Phenoxy ethanol, 2-Phenoxy ethanol]: the MIC in assay [1] (Escherichia coli, ATCC10142, read-out: Concentration of individual component at MIC of Preservative Blend No 1) was 1600 µg/mL; in assay [1] (Escherichia coli, ATCC10142, read-out: Concentration of individual component at MIC of Preservative Blend No 2), 2400 µg/mL; in assay [1] (Escherichia coli, ATCC10142, read-out: MINIMUM INHIBITORY CONCENTRATION), 6000 µg/mL (≈ 43.4 mM); in assay [2] (Pseudomonas aeruginosa, read-out: Concentration of individual component at MIC of Preservative Blend No 1) it was 1600 µg/mL; in assay [2] (Pseudomonas aeruginosa, read-out: Concentration of individual component at MIC of Preservative Blend No 2) it was 2400 µg/mL; in [2] (Pseudomonas aeruginosa, read-out: MINIMUM INHIBITORY CONCENTRATION) it was 4000 µg/mL (≈ 29 mM). Also, the MIC in [3] (Staphylococcus aureus, read-out: Concentration of individual component at MIC of Preservative Blend No 1) was found to be 1600 µg/mL; in [3] (Staphylococcus aureus, read-out: Concentration of individual component at MIC of Preservative Blend No 2), 2400 µg/mL; in assay [3] (Staphylococcus aureus, read-out: MINIMUM INHIBITORY CONCENTRATION), 8500 µg/mL (≈ 61.5 mM); in [4] (setting [10]) it was 4000 µg/mL (≈ 29 mM); in assay [4] (setting [11]) it was 1600 µg/mL; in [4] (in Preservative Blend No 2 (10:10:80), Bacillus subtilis, read-out: Concentration of individual component at MIC of Preservative Blend No 2) it was 1600 µg/mL. Besides, the MIC in assay [6] (Candida albicans, ATCC10231, read-out: Concentration of individual component at MIC of Preservative Blend No 1) stood at 2400 µg/mL; in assay [6] (Candida albicans, ATCC10231, read-out: Concentration of individual component at MIC of Preservative Blend No 2), 1600 µg/mL; in assay [6] (Candida albicans, ATCC10231, read-out: MINIMUM INHIBITORY CONCENTRATION), 6000 µg/mL (≈ 43.4 mM); in assay [7] (Aspergillus niger, ATCC16404, read-out: Concentration of individual component at MIC of Preservative Blend No 1) it was 2400 µg/mL; in assay [7] (Aspergillus niger, ATCC16404, read-out: Concentration of individual component at MIC of Preservative Blend No 2), 1600 µg/mL; in assay [7] (Aspergillus niger, ATCC16404, read-out: MINIMUM INHIBITORY CONCENTRATION), 9000 µg/mL (≈ 65.1 mM). Further, the MIC in assay [8] (Malassezia furfur, MTCC1374, read-out: Concentration of individual component at MIC of Preservative Blend No 1) is 3200 µg/mL; in assay [8] (Malassezia furfur, MTCC1374, read-out: Concentration of individual component at MIC of Preservative Blend No 2) it was 3200 µg/mL; in assay [8] (Malassezia furfur, MTCC1374, read-out: MINIMUM INHIBITORY CONCENTRATION), 4000 µg/mL (≈ 29 mM); in assay [9] (MTCC1951, read-out: Concentration of individual component at MIC of Preservative Blend No 1) it was 2400 µg/mL; in [9] (MTCC1951, read-out: Concentration of individual component at MIC of Preservative Blend No 2) it was 1600 µg/mL; in assay [9] (MTCC1951, read-out: MINIMUM INHIBITORY CONCENTRATION), 4000 µg/mL (≈ 29 mM). Moreover, the “Activity against yeast and mould” value in [5] (ingredient alone, Aspergillus and Candida) is on record as “virtually no activity”. For the same compound, the Activity against bacteria result in assay [5] (ingredient alone, particularly Gram positive) is recorded as “weak activity”. The “Concentration enough to kill the organism in combination with components [A] and [B]” value in [6] (in Preservative Blend No 1, Candida) is listed as “around 0.25%”; in assay [7] (in Preservative Blend No 1; Aspergillus) it was “around 0.25%”.
